Assay results from ChEMBL document CHEMBL3885881, “DrugMatrix”.

Organism: Rattus norvegicus
Test: DrugMatrix - Regimen: Daily Repeat
Assay type: toxicity, organism-based, Sprague-Dawley
Set-up: regimen Daily Repeat, gender Male, age 6-8 weeks
Details: in vivo, po, route oral GAVAGE, […]; for ABSOLUTE BASOPHIL / ABSOLUTE EOSINOPHIL / ABSOLUTE LYMPHOCYTE / ABSOLUTE MONOCYTE / ABSOLUTE SEGMENTED NEUTROPHIL / BASOPHIL / EOSINOPHIL / ERYTHROCYTE COUNT / HEMATOCRIT / HEMOGLOBIN / LEUKOCYTE COUNT / LYMPHOCYTE / MEAN CORPUSCULAR HEMOGLOBIN / MEAN CORPUSCULAR HEMOGLOBIN CONCENTRATION / MEAN CORPUSCULAR VOLUME / MONOCYTE / NEUTROPHIL / NUCLEATED RED BLOOD CELLS / PLATELET COUNT: tissue Blood; for ALANINE AMINOTRANSFERASE / ALBUMIN / ALKALINE PHOSPHATASE / ASPARTATE AMINOTRANSFERASE / BLOOD UREA NITROGEN / CARBON DIOXIDE / CHLORIDE / CHOLESTEROL / CREATINE PHOSPHOKINASE / CREATININE / GLUCOSE / LACTATE DEHYDROGENASE / LIPASE / PHOSPHORUS / POTASSIUM / SODIUM / TOTAL BILIRUBIN / TOTAL PROTEIN / URIC ACID: tissue Plasma
[1] = 75 mg/kg, 72 h, dose level High, time 3 day
[2] = 75 mg/kg, 120 h, dose level High, time 5 day
[3] = 72 h, dose 7.5 mg/Kg, dose level Low, time 3 day
[4] = 120 h, dose 7.5 mg/Kg, dose level Low, time 5 day

`C[C@@H]1CC[C@@]2(OC1)O[C@H]1[C@@H](O)[C@H]3[C@@H]4CC[C@H]5C[C@@H](O[C@@H]6O[C@H](CO)[C@H](O[C@@H]7O[C@H](CO)C(O)[C@H](O[C@@H]8OC[C@@H](O)[C@H](O)[C@H]8O)[C@H]7O[C@@H]7O[C@H](CO)[C@H](O)[C@H](O[C@@H]8O[C@H](CO)[C@@H](O)[C@H](O)[C@H]8O)[C@H]7O)[C@H](O)[C@H]6O)[C@H](O)C[C@]5(C)[C@H]4CC[C@]3(C)[C@H]1[C@@H]2C` (some centres not stated) [DIGITONIN] was tested, and the “ABSOLUTE BASOPHIL” value [1] was 0 CELLS/uL, the “ABSOLUTE EOSINOPHIL” value [1] was 39.67 CELLS/uL and the “ABSOLUTE LYMPHOCYTE” value [1] was 12631.67 CELLS/uL. The “ABSOLUTE MONOCYTE” value [1] was 0 CELLS/uL, the “ABSOLUTE SEGMENTED NEUTROPHIL” value [1] was 1028.67 CELLS/uL and the BASOPHIL [1] was 0%. The EOSINOPHIL [1] was 0.33%, the “ERYTHROCYTE COUNT” value [1] was 5.46 x10E6/uL and the HEMATOCRIT [1] was 34.9%. The HEMOGLOBIN [1] was 13.03 G/DL, the “LEUKOCYTE COUNT” value [1] was 13.7 x10E3/uL and the LYMPHOCYTE [1] was 92.33%. The “MEAN CORPUSCULAR HEMOGLOBIN” value [1] was 23.83 pg, the “MEAN CORPUSCULAR HEMOGLOBIN CONCENTRATION” value [1] was 37.37 G/DL and the “MEAN CORPUSCULAR VOLUME” value [1] was 63.8 fL. For the same molecule, the MONOCYTE [1] was 0%, the NEUTROPHIL [1] was 7.33% and the “NUCLEATED RED BLOOD CELLS” value [1] was 0 /100WBC. The “PLATELET COUNT” value [1] was 1082.67 x10E3/uL, the “ALANINE AMINOTRANSFERASE” value [1] was 64 u/L and the ALBUMIN [1] was 4.23 G/DL. The “ALKALINE PHOSPHATASE” value [1] was 395.33 u/L, the “ASPARTATE AMINOTRANSFERASE” value [1] was 86.33 u/L and the “BLOOD UREA NITROGEN” value [1] was 16.67 mg/dL. The “CARBON DIOXIDE” value [1] was 25.33 mmol/L, the CHLORIDE [1] was 102 MEQ/L and the CHOLESTEROL [1] was 78 mg/dL. The “CREATINE PHOSPHOKINASE” value [1] was 233.67 u/L, the CREATININE [1] was 0.17 mg/dL and the GLUCOSE [1] was 178.33 mg/dL. The “LACTATE DEHYDROGENASE” value [1] was 118.33 u/L, the LIPASE [1] was 9 u/L and the PHOSPHORUS [1] was 13.13 mg/dL. For the same molecule, the POTASSIUM [1] was 6.32 MEQ/L, the SODIUM [1] was 144.17 MEQ/L and the “TOTAL BILIRUBIN” value [1] was 0.23 mg/dL. For the same molecule, the “TOTAL PROTEIN” value [1] was 5.93 G/DL, the “URIC ACID” value [1] was 2.1 mg/dL and the “ABSOLUTE BASOPHIL” value [2] was 0 CELLS/uL. For the same molecule, the “ABSOLUTE EOSINOPHIL” value [2] was 43.33 CELLS/uL, the “ABSOLUTE LYMPHOCYTE” value [2] was 6877 CELLS/uL and the “ABSOLUTE MONOCYTE” value [2] was 37 CELLS/uL. For the same molecule, the “ABSOLUTE SEGMENTED NEUTROPHIL” value [2] was 776 CELLS/uL, the BASOPHIL [2] was 0% and the EOSINOPHIL [2] was 0.67%. The “ERYTHROCYTE COUNT” value [2] was 5.49 x10E6/uL, the HEMATOCRIT [2] was 35.43% and the HEMOGLOBIN [2] was 13.27 G/DL. For the same molecule, the “LEUKOCYTE COUNT” value [2] was 7.73 x10E3/uL, the LYMPHOCYTE [2] was 89.33% and the “MEAN CORPUSCULAR HEMOGLOBIN” value [2] was 24.17 pg. For the same molecule, the “MEAN CORPUSCULAR HEMOGLOBIN CONCENTRATION” value [2] was 37.47 G/DL, the “MEAN CORPUSCULAR VOLUME” value [2] was 64.5 fL and the MONOCYTE [2] was 0.33%. For the same molecule, the NEUTROPHIL [2] was 9.67%, the “NUCLEATED RED BLOOD CELLS” value [2] was 0 /100WBC and the “PLATELET COUNT” value [2] was 1285 x10E3/uL. The “ALANINE AMINOTRANSFERASE” value [2] was 65.67 u/L, the ALBUMIN [2] was 4.4 G/DL and the “ALKALINE PHOSPHATASE” value [2] was 444.33 u/L. For the same molecule, the “ASPARTATE AMINOTRANSFERASE” value [2] was 85.67 u/L, the “BLOOD UREA NITROGEN” value [2] was 15.67 mg/dL and the “CARBON DIOXIDE” value [2] was 24 mmol/L. For the same molecule, the CHLORIDE [2] was 100 MEQ/L, the CHOLESTEROL [2] was 62 mg/dL and the “CREATINE PHOSPHOKINASE” value [2] was 202.67 u/L. For the same molecule, the CREATININE [2] was 0.15 mg/dL, the GLUCOSE [2] was 146.67 mg/dL and the “LACTATE DEHYDROGENASE” value [2] was 137.67 u/L. It also gave an LIPASE [2] of 8.33 u/L, a PHOSPHORUS [2] of 10.97 mg/dL and a POTASSIUM [2] of 5.88 MEQ/L. For the same molecule, the SODIUM [2] was 147.6 MEQ/L, the “TOTAL BILIRUBIN” value [2] was 0.23 mg/dL and the “TOTAL PROTEIN” value [2] was 6 G/DL. For the same molecule, the “URIC ACID” value [2] was 0.83 mg/dL, the “ABSOLUTE BASOPHIL” value [3] was 0 CELLS/uL and the “ABSOLUTE EOSINOPHIL” value [3] was 77.33 CELLS/uL. For the same molecule, the “ABSOLUTE LYMPHOCYTE” value [3] was 10391.33 CELLS/uL, the “ABSOLUTE MONOCYTE” value [3] was 34.33 CELLS/uL and the “ABSOLUTE SEGMENTED NEUTROPHIL” value [3] was 1397 CELLS/uL. The BASOPHIL [3] was 0%, the EOSINOPHIL [3] was 0.67% and the “ERYTHROCYTE COUNT” value [3] was 5.69 x10E6/uL. The HEMATOCRIT [3] was 35.5%, the HEMOGLOBIN [3] was 13.27 G/DL and the “LEUKOCYTE COUNT” value [3] was 11.9 x10E3/uL. The LYMPHOCYTE [3] was 87.33%, the “MEAN CORPUSCULAR HEMOGLOBIN” value [3] was 23.33 pg and the “MEAN CORPUSCULAR HEMOGLOBIN CONCENTRATION” value [3] was 37.4 G/DL. For the same molecule, the “MEAN CORPUSCULAR VOLUME” value [3] was 62.47 fL, the MONOCYTE [3] was 0.33% and the NEUTROPHIL [3] was 11.67%. The “NUCLEATED RED BLOOD CELLS” value [3] was 0 /100WBC, the “PLATELET COUNT” value [3] was 1266.67 x10E3/uL and the “ALANINE AMINOTRANSFERASE” value [3] was 59.33 u/L. For the same molecule, the ALBUMIN [3] was 4.13 G/DL, the “ALKALINE PHOSPHATASE” value [3] was 424 u/L and the “ASPARTATE AMINOTRANSFERASE” value [3] was 79 u/L. The “BLOOD UREA NITROGEN” value [3] was 14 mg/dL, the “CARBON DIOXIDE” value [3] was 25.67 mmol/L and the CHLORIDE [3] was 100.67 MEQ/L. For the same molecule, the CHOLESTEROL [3] was 70.67 mg/dL, the “CREATINE PHOSPHOKINASE” value [3] was 187 u/L and the CREATININE [3] was 0.18 mg/dL. The GLUCOSE [3] was 156.33 mg/dL, the “LACTATE DEHYDROGENASE” value [3] was 100.33 u/L and the LIPASE [3] was 8.67 u/L. The PHOSPHORUS [3] was 12.73 mg/dL, the POTASSIUM [3] was 6.51 MEQ/L and the SODIUM [3] was 145.03 MEQ/L. The “TOTAL BILIRUBIN” value [3] was 0.23 mg/dL, the “TOTAL PROTEIN” value [3] was 5.73 G/DL and the “URIC ACID” value [3] was 2.23 mg/dL. The “ABSOLUTE BASOPHIL” value [4] was 0 CELLS/uL, the “ABSOLUTE EOSINOPHIL” value [4] was 102 CELLS/uL and the “ABSOLUTE LYMPHOCYTE” value [4] was 14620 CELLS/uL. For the same molecule, the “ABSOLUTE MONOCYTE” value [4] was 219 CELLS/uL, the “ABSOLUTE SEGMENTED NEUTROPHIL” value [4] was 1792.33 CELLS/uL and the BASOPHIL [4] was 0%. For the same molecule, the EOSINOPHIL [4] was 0.67%, the “ERYTHROCYTE COUNT” value [4] was 5.47 x10E6/uL and the HEMATOCRIT [4] was 35.23%. For the same molecule, the HEMOGLOBIN [4] was 13.57 G/DL, the “LEUKOCYTE COUNT” value [4] was 16.73 x10E3/uL and the LYMPHOCYTE [4] was 87.33%. The “MEAN CORPUSCULAR HEMOGLOBIN” value [4] was 24.83 pg, the “MEAN CORPUSCULAR HEMOGLOBIN CONCENTRATION” value [4] was 38.5 G/DL and the “MEAN CORPUSCULAR VOLUME” value [4] was 64.37 fL. The MONOCYTE [4] was 1.33%, the NEUTROPHIL [4] was 10.67% and the “NUCLEATED RED BLOOD CELLS” value [4] was 0 /100WBC. The “PLATELET COUNT” value [4] was 1216 x10E3/uL, the “ALANINE AMINOTRANSFERASE” value [4] was 57.33 u/L and the ALBUMIN [4] was 4.3 G/DL. For the same molecule, the “ALKALINE PHOSPHATASE” value [4] was 437 u/L, the “ASPARTATE AMINOTRANSFERASE” value [4] was 80.33 u/L and the “BLOOD UREA NITROGEN” value [4] was 14.67 mg/dL. For the same molecule, the “CARBON DIOXIDE” value [4] was 28.67 mmol/L, the CHLORIDE [4] was 100.67 MEQ/L and the CHOLESTEROL [4] was 53.67 mg/dL. The “CREATINE PHOSPHOKINASE” value [4] was 222.67 u/L, the CREATININE [4] was 0.22 mg/dL and the GLUCOSE [4] was 160.33 mg/dL. For the same molecule, the “LACTATE DEHYDROGENASE” value [4] was 207.67 u/L, the LIPASE [4] was 8 u/L and the PHOSPHORUS [4] was 11.63 mg/dL. The POTASSIUM [4] was 6.09 MEQ/L, the SODIUM [4] was 144.37 MEQ/L and the “TOTAL BILIRUBIN” value [4] was 0.2 mg/dL. The “TOTAL PROTEIN” value [4] was 6.03 G/DL and the “URIC ACID” value [4] was 1.47 mg/dL.
